Measured values from ChEMBL document CHEMBL1154415, “Population pharmacokinetics and pharmacodynamics of continuous versus short-term infusion of imipenem-cilastatin in critically ill patients in a randomized, controlled trial” (Antimicrob Agents Chemother, 2007).

How the values were obtained:
[1] = Plasma concentration in nosocomial pneumonia patient at loading dose of 1 g and maintenance dose of 2 g administered daily for 3 days as continuous infusion measured after 72 hrs in presence of cilastatin; format: ADME, organism-based; conditions: human, iv
[2] = system: Serum; assay: Protein binding in human serum by ultrafiltration technique in presence of cilastatin; format: ADME, cell-free
[3] = Total clearance in nosocomial pneumonia patient at 1 g administered every 8 hrs for 3 days as shot-term iv infusion for 40 mins or at a loading dose of 1 g and maintenance dose of 2 g administered daily for 3 days as continuous iv infusion presence of cilastatin maintenance dose administered as continuous fusion at 8 hrs interval over 72 hrs in presence of cilastatin; format: ADME, organism-based; conditions: human, in vivo
[4] = organism: Homo sapiens; assay: Toxicity in nosocomial pneumonia patient assessed as induction of seizures in presence of cilastin; format: organism-based; conditions: in vivo

concentration at 72 h [1]: 8650 ng/mL
Activity [2]: 20%
clearance [3]: 205 mL/min
SMILES: C[C@@H](O)[C@H]1C(=O)N2C(C(=O)O)=C(SCCN=CN)C[C@H]12 [IMIPENEM ANHYDROUS]
Activity [4]: Non-toxic
